Measured values reported in US20240245691A1 (Sitryx Therapeutics Limited, priority 2021, published 2024).
Read-outs that look alike come from different tables or passages of the source.

Assays:
[1] = tested on: IL-1β; assay: THP-1 AlphaLISA IL-1β cytokine assay (differentiated THP-1 cells); format: cell-based; details: Homo sapiens
Method in brief: (§1)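 PMA-differentiated THP-1 cells were preincubated 30 min with compound, stimulated with LPS for 24 h, then nigericin for 1 h, all at 37 °C. Supernatant IL-1β and IL-6 were quantified by AlphaLISA. % inhibition is normalised to +LPS and −LPS controls per cytokine.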

[2] = tested on: NRF2 (nuclear factor erythroid 2-related factor 2); assay: NRF2 +/-GSH activation assay (DiscoverX PathHunter NRF2 translocation kit, U2OS cells); format: cell-based; details: Homo sapiens
[3] = Hepatocyte stability assay, human; format: in vitro ADME; details: human, hepatocytes, T½
Text: (§2) Defrosted cryo-preserved hepatocytes (viability>70%) were used to determine the metabolic stability of a compound via calculation of intrinsic clearance (CIint; a measure of the removal of a compound from the liver in the absence of blood flow and cell binding). Clearance data are particularly important for in vitro work as they can be used in combination with in vivo data to predict the half-life and oral bioavailability of a drug.
(§3) The metabolic stability in hepatocytes assay involved a time-dependent reaction using both positive and negative controls. The cells must be pre-incubated at 37° C. then spiked with test compound (and positive control); samples taken at pre-determined time intervals were analysed to monitor the change in concentration of the initial drug compound over 60 minutes. A buffer incubation reaction (with no hepatocytes present) acted as a negative control and two cocktail solutions, containing compounds with known high and low clearance values (verapamil/7-hydroxycoumarin and propranolol/diltiazem), acted as positive controls. • 1. The assay was run with a cell concentration of 0.5×10^6 cells/mL in Leibovitz buffer. • 2. All compounds and controls were run in duplicate. • 3. Compound concentration was 10 μM. • 4. All compounds and controls were incubated with both cells and buffer to show turnover is due to hepatic metabolism. • 5. All wells on the incubation plate had 326.7 μL of either cells or buffer added. • 6. Prior to assay, cell and buffer-only incubation plates were preincubated for 10 mins at 37° C. • 7. The assay was initiated by adding compounds, 3.3 μL of 1 mM in 10% DMSO-90% Buffer; final DMSO concentration is 0.1%. • 8. Samples were taken at regular timepoints (0, 5, 10, 20, 40, 60 min) until 60 mins. • 9. Sample volume was 40 μL and added to 160 μL of crash solvent (acetonitrile with internal standard) and stored on ice. • 10. At the end of the assay, the crash plates were centrifuged at 3500 rpm for 20 mins at 4° C. • 11. 80 μL of clear supernatant was removed and mixed with 80 μL of deionised water before being analysed by LC-MS/MS.
(§4) Raw LC-MS/MS data were exported to, and analysed in, Microsoft Excel for determination of intrinsic clearance. The percentage remaining of a compound was monitored using the peak area of the initial concentration as 100%. Intrinsic clearance and half-life values were calculated using a graph of the natural log of percentage remaining versus the time of reaction in minutes.
(§5) 4-Octyl itaconate was included as a comparator compound.

[4] = tested on: cryo-preserved hepatocytes; assay: Hepatocyte stability assay, human; format: in vitro ADME; details: human, hepatocytes
Text: as §2, §3, §4, §5

[5] = Hepatocyte stability assay, mouse; format: in vitro ADME; details: mouse, hepatocytes, T½
Text: as §2, §3, §4, §5

[6] = tested on: cryo-preserved hepatocytes; assay: Hepatocyte stability assay, mouse; format: in vitro ADME; details: mouse, hepatocytes
Text: as §2, §3, §4, §5

[7] = tested on: IL-6; assay: THP-1 AlphaLISA IL-6 cytokine assay (differentiated THP-1 cells); format: cell-based; details: Homo sapiens
Method in brief: as §1

[8] = THP-1, differentiated THP-1 cells, LPS 24 hr then Nigericin 1 hour, read-out: IL-1β (IC50)
[9] = U2OS, +GSH, normalised to dimethyl fumarate high control, read-out: NRF2 activation Emax, +GSH
[10] = U2OS, −GSH, normalised to dimethyl fumarate high control, read-out: NRF2 activation Emax, −GSH
[11] = +GSH, U2OS PathHunter cells, 6 hours, read-out: NRF2 activation EC50, +GSH
[12] = −GSH, U2OS PathHunter cells, 6 hours, read-out: NRF2 activation EC50, −GSH
[13] = THP-1, differentiated THP-1 cells, LPS 24 hr then Nigericin 1 hour, read-out: IL-6 (IC50)

| SMILES | IC50 [1, 8] | EC50 [2, 11] | EC50 [2, 12] | half-life at 10 μM [3] | Clint [4] | half-life at 10 μM [5] | Clint [6] | IC50 [7, 13] | IC50 ([1]; THP-1, differentiated THP-1 cells, footnote a: data from repeated experiments, read-out: IL-1β (IC50), data from repeated experiments) | Emax [2, 9] | Emax [2, 10] | IC50 ([1]; THP-1, read-out: IL-1β (IC50)) | EC50 ([2]; U2OS, 6 h, read-out: NRF2 activation EC50, +GSH) | EC50 ([2]; U2OS, 6 h, read-out: NRF2 activation EC50, −GSH) | Emax ([2]; U2OS, read-out: NRF2 activation Emax, +GSH) | Emax ([2]; U2OS, read-out: NRF2 activation Emax, −GSH) | IC50 ([7]; THP-1, read-out: IL-6 (IC50)) |
| --- | --- | --- | --- | --- | --- | --- | --- | --- | --- | --- | --- | --- | --- | --- | --- | --- | --- |
| C/C=C(\CC(=O)N[C@@H](C)c1ccc(C(F)(F)F)cc1)C(=O)O [Example 42, (S,E)-2-(2-oxo-2-((1-(4-(trifluoromethyl)phenyl)ethyl)amino)ethyl)but-2-enoic acid] |  |  |  | > 7.67 h | <3 μL min^−1 10^−6 cells | 5.38 h | 3 μL min^−1 10^−6 cells |  |  |  |  | 2.3 µM | > 100 µM | > 100 µM | 3% | 8% | > 68.1 µM |
| C=C(CC(=O)NC1(c2ccc(C(F)(F)F)cc2)COC1)C(=O)O [Example 13, 2-methylene-4-oxo-4-((3-(4-(trifluoromethyl)phenyl)oxetan-3-yl)amino)butanoic acid] | 19.5 µM |  |  | 7.17 h | 3 μL min^−1 10^−6 cells | > 7.67 h | <3 μL min^−1 10^−6 cells | > 31.6 µM |  |  |  |  |  |  |  |  |  |
| C=C(CC(=O)NC1CCc2cc(C(F)(F)F)ccc21)C(=O)O (centres unmarked) [Example 40, 2-methylene-4-oxo-4-((5-(trifluoromethyl)-2,3-dihydro-1H-inden-1-yl)amino) butanoic acid] | 26.9 µM |  |  | > 7.67 h | <3 μL min^−1 10^−6 cells | > 7.67 h | <3 μL min^−1 10^−6 cells | > 100 µM |  |  |  |  |  |  |  |  |  |
| C=C(CC(=O)N[C@@H](C)c1ccc(C(F)(F)F)cc1)C(=O)OC1(C)COC1 [Example 28, 3-methyloxetan-3-yl (S)-2-methylene-4-oxo-4-((1-(4-(trifluoromethyl)phenyl)ethyl)amino)butanoate] |  |  |  | 0.3 h | 80 μL min^−1 10^−6 cells | < 0.05 h | >460 μL min^−1 10^−6 cells |  |  |  |  | 10.5 µM |  |  |  |  | 5.6 µM |
| C[C@H](NC(=O)C/C(=C\CN(C)C)C(=O)O)c1ccc(C(F)(F)F)cc1 [Example 49, (S,E)-4-(dimethylamino)-2-(2-oxo-2-((1-(4-(trifluoromethyl)phenyl)ethyl)amino)ethyl)but-2-enoic acid] |  |  |  | > 7.67 h | <3 μL min^−1 10^−6 cells | > 7.67 h | <3 μL min^−1 10^−6 cells |  |  |  |  | 16.5 µM |  |  |  |  | > 100 µM |
| C=C(CC(=O)NC1(c2ccc(C(F)(F)F)cc2)CCCC1)C(=O)O [Example 14, 2-methylene-4-oxo-4-((1-(4-(trifluoromethyl)phenyl)cyclopentyl)amino) butanoic acid] | 58.3 µM |  |  | > 7.67 h | <3 μL min^−1 10^−6 cells | 6.48 h | 4 μL min^−1 10^−6 cells | > 100 µM |  |  |  |  |  |  |  |  |  |

Second part, led by results:

| IC50 [1, 8] | EC50 [2, 11] | EC50 [2, 12] | half-life at 10 μM [3] | Clint [4] | half-life at 10 μM [5] | Clint [6] | IC50 [7, 13] | IC50 ([1]; THP-1, differentiated THP-1 cells, footnote a: data from repeated experiments, read-out: IL-1β (IC50), data from repeated experiments) | SMILES | Emax [2, 9] | Emax [2, 10] | IC50 ([1]; THP-1, read-out: IL-1β (IC50)) | EC50 ([2]; U2OS, 6 h, read-out: NRF2 activation EC50, +GSH) | EC50 ([2]; U2OS, 6 h, read-out: NRF2 activation EC50, −GSH) | Emax ([2]; U2OS, read-out: NRF2 activation Emax, +GSH) | Emax ([2]; U2OS, read-out: NRF2 activation Emax, −GSH) | IC50 ([7]; THP-1, read-out: IL-6 (IC50)) |
| --- | --- | --- | --- | --- | --- | --- | --- | --- | --- | --- | --- | --- | --- | --- | --- | --- | --- |
| 14.8 µM | > 100 µM | 5.7 µM | 2.28 h | 11 μL min^−1 10^−6 cells | 1.18 h | 24 μL min^−1 10^−6 cells | 25.8 µM |  | C=C(CC(=O)N[C@@H](C)c1ccc(C(F)(F)F)cn1)C(=O)OCCO [Example 34, 2-hydroxyethyl (S)-2-methylene-4-oxo-4-((1-(5-(trifluoromethyl)pyridin-2-yl)ethyl)amino)butanoate] | 16% | 81% |  |  |  |  |  |  |
| 4.7 µM | > 100 µM | 9.05 µM | 1.08 h | 23 μL min^−1 10^−6 cells | 0.133 h | 199 μL min^−1 10^−6 cells | 4 µM |  | C=C(CC(=O)N[C@@H](C)c1ccc(C(F)(F)F)cc1)C(=O)OC1CCN(C)CC1 [Example 24, 1-methylpiperidin-4-yl (S)-2-methylene-4-oxo-4-((1-(4-(trifluoromethyl)phenyl)ethyl)amino)butanoate] | 30% | 78% |  |  |  |  |  |  |
| 3.7 µM | > 100 µM | > 100 µM | > 7.67 h | <3 μL min^−1 10^−6 cells | 7.5 h | 3 μL min^−1 10^−6 cells | > 56.2 µM | 5.6 µM | C=C(CC(=O)NC1(c2ccc(C(F)(F)F)cc2)CCC1)C(=O)O [Example 5, 2-methylene-4-oxo-4-((1-(4-(trifluoromethyl)phenyl)cyclobutyl)amino)butanoic acid] | 0% | 17% |  |  |  |  |  |  |
| 3.3 µM |  |  | > 7.67 h | <3 μL min^−1 10^−6 cells | 2.77 h | 11 μL min^−1 10^−6 cells | > 100 µM |  | C=C(CC(=O)N[C@@H](C)c1ccc(S(F)(F)(F)(F)F)cc1)C(=O)O [Example 56, (S)-2-methylene-4-oxo-4-((1-(4-(pentafluoro-A6-sulfaneyl)phenyl)ethyl)amino)butanoic acid] |  |  |  |  |  |  |  |  |
| 9.2 µM |  |  | > 7.67 h | <3 μL min^−1 10^−6 cells | > 7.67 h | <3 μL min^−1 10^−6 cells | > 100 µM |  | C=C(CC(=O)N[C@@H](C)c1ccc(C(F)(F)F)cn1)C(=O)O [Example 30, (S)-2-methylene-4-oxo-4-((1-(5-(trifluoromethyl)pyridin-2-yl)ethyl)amino) butanoic acid] |  |  |  |  |  |  |  |  |
| 5.1 µM |  |  | 0.4 h | 62 μL min^−1 10^−6 cells | < 0.05 h | >460 μL min^−1 10^−6 cells | 3.9 µM |  | C=C(CC(=O)N[C@@H](C)c1ccc(C(F)(F)F)cc1)C(=O)OCCN(C)C [Example 26, 2-(dimethylamino)ethyl (S)-2-methylene-4-oxo-4-((1-(4-(trifluoromethyl)phenyl)ethyl)amino)butanoate] |  |  |  |  |  |  |  |  |
| > 100 µM |  |  | > 7.67 h | <3 μL min^−1 10^−6 cells | 2.2 h | 12 μL min^−1 10^−6 cells | > 100 µM |  | C[C@H](NC(=O)C/C(=C\c1ccccc1)C(=O)O)c1ccc(C(F)(F)F)cc1 [Example 47, (S,E)-2-benzylidene-4-oxo-4-((1-(4-(trifluoromethyl)phenyl)ethyl)amino)butanoic acid] |  |  |  |  |  |  |  |  |
| 8.3 µM |  |  | > 7.67 h | <3 μL min^−1 10^−6 cells | > 7.67 h | <3 μL min^−1 10^−6 cells | > 100 µM |  | C=C(CC(=O)NC1(c2ccc(C(F)(F)F)cc2)CC1)C(=O)O [Example 11, 2-methylene-4-oxo-4-((1-(4-(trifluoromethyl)phenyl)cyclopropyl)amino)butanoic acid] |  |  |  |  |  |  |  |  |
| 16.6 µM |  |  | > 7.67 h | <3 μL min^−1 10^−6 cells | > 7.67 h | <3 μL min^−1 10^−6 cells | > 100 µM |  | C=C(CC(=O)NC(c1ccc(C(F)(F)F)cc1)C1CC1)C(=O)O (centres unmarked) [Example 10, 4-((cyclopropyl(4-(trifluoromethyl)phenyl)methyl)amino)-2-methylene-4-oxobutanoic acid] |  |  |  |  |  |  |  |  |
